Source: patent US9938281B2 (Merck Sharp & Dohme Corp., priority 2012, dated 2018)

Experiments:
PI3K-alpha = target: T1, PI3K-alpha (Homo sapiens, UniProt P42336); test: HTRF PI3K biochemical assay, alpha isoform; details: ratio PI3K-alpha IC50 value / PI3K-delta IC50 value
T1 construct: purchased Upstate; Millipore 14-602
Description: The PI3-Kinase biochemical assays were developed to measure the intrinsic potency and compound dependent inhibition of the alpha, beta, delta, and gamma PI3K isoform enzymes. This assay was developed and further optimized from a kit produced by Upstate (Millipore catalog #33-047) and has been configured for HTS and SAR screening. Briefly, this procedure exploits the exquisite specificity and high affinity binding of enzyme reaction substrate phosphatidyl(3,4,5)triphosphate (PIP3) to the GRP1 pleckstrin homology (PH) domain to generate the signal. In the absence of PIP3, an HTRF (Homogeneous Time-Resolved Fluorescence energy transfer) complex is formed consisting of europium (Eu)-labeled anti-GST, GSTtagged GRP1-PH domain, biotin-PIP3 and streptavidin conjugated APC. The native PIP3 produced by PI3-Kinase activity disrupts in a competitive manner the biotin-PIP3 from the PH domain, resulting in the loss of energy transfer (HTRF complex) and a decrease in the signal. The format of this assay is the same for all 4 isoforms of PI3K; the differences lie in the concentration of enzyme used to achieve robust assay window. The alpha, beta, and delta assays are run at 0.5, 1, and 0.3 nM enzymes and the gamma assay is run at 5 nM enzyme. The ATP concentration is 100 uM in the alpha, beta, and delta assays and 50 uM ATP in the gamma assay. All reactions are run at 5 uM PIP2.
(§1) Compounds are serially diluted (3-fold in 100% DMSO) across a 384-well polypropylene source plated from column 3 to column 12 and column 13 to column 22, to yield 10 concentration dose response for each test compound. Columns 1, 2, 23 and 24 contain either only DMSO or pharmacological known control inhibitor.
(§2) The PI3-Kinase biochemical assay was optimized using the HTRF kit provided by Upstate (Millipore). The assay kit contains six reagents: 1) 4× Reaction Buffer; 2) native PIP2 (substrate); 3) Stop (EDTA); 4) Detection Mix A (Streptavidin-APC); 5) Detection Mix B (Eu-labeled Anti-GST plus GST-tagged PH-domain); 6) Detection Mix C.
(§3) PI3Kinase Reaction Buffer is prepared by dilution the stock 1:4 with de-ionized water. […] Enzyme addition and compound pre-incubation are initiated by the addition of 1.25 ul of PI3K (at twice its final concentration) in the 1× reaction buffer to all wells using a BioRaptor. Plates are incubated at room temperature for 15 minutes. Reactions are initiated by addition of 1.25 ul of 2× substrate solution (PIP2 and ATP in 1× reaction buffer) using BioRaptor. Plates are incubated in humidified chamber at room temperature for one hour. Reactions are quenched by addition of 0.625 uL of stop solution to all wells using the BioRaptor. The quenched reactions are then processed to detect product formation by adding 0.625 uL of Detection Solution to all wells using the BioRaptor (Detection mix C, Detection Mix A, and Detection Mix B combined together in an 18:1:1 ratio prepared 2 hours prior to use).
(§4) The loss of the HTRF signal is due to the displacement of biotinylated-PIP3 from the PH domain by the PI3K-dependent conversion of PIP2 to PIP3. This loss of signal is nonlinear with respect to both increasing product and time. This non-linear detection will impact accuracy of IC50 calculations; therefore, there is a need for a correction factor to obtain more accurate IC50 values. This correction is derived from a PIP3 standard curve run in a separate assay plate. All data were calculated using the ratio of acceptor (APC) to donor (Europium) fluorescence in each well of the assay plate. […] An IC50 was then calculated fitting the % inhibition data to the equation: % inhibition=min+(Max−min)/1+([inhibitor]/IC50)^n) where min is the % inhibition with inhibitor, max is the signal in DMSO control, and n is the Hill slope.
The determination of relative selectivity for a given compound is defined as the relative ratio of the (PI3K-alphalC50 value/PI3K-delta IC50 value).

PI3K-delta = target: T2, PI3K-delta (Homo sapiens, UniProt O00329); test: HTRF PI3K biochemical assay, delta isoform; details: form screened (neutral or TFA salt) given, read-out: PI3Kdelta IC50
T2 construct: purchased Upstate; Millipore 14-604
T2 sequence (O00329 whole entry, canonical isoform): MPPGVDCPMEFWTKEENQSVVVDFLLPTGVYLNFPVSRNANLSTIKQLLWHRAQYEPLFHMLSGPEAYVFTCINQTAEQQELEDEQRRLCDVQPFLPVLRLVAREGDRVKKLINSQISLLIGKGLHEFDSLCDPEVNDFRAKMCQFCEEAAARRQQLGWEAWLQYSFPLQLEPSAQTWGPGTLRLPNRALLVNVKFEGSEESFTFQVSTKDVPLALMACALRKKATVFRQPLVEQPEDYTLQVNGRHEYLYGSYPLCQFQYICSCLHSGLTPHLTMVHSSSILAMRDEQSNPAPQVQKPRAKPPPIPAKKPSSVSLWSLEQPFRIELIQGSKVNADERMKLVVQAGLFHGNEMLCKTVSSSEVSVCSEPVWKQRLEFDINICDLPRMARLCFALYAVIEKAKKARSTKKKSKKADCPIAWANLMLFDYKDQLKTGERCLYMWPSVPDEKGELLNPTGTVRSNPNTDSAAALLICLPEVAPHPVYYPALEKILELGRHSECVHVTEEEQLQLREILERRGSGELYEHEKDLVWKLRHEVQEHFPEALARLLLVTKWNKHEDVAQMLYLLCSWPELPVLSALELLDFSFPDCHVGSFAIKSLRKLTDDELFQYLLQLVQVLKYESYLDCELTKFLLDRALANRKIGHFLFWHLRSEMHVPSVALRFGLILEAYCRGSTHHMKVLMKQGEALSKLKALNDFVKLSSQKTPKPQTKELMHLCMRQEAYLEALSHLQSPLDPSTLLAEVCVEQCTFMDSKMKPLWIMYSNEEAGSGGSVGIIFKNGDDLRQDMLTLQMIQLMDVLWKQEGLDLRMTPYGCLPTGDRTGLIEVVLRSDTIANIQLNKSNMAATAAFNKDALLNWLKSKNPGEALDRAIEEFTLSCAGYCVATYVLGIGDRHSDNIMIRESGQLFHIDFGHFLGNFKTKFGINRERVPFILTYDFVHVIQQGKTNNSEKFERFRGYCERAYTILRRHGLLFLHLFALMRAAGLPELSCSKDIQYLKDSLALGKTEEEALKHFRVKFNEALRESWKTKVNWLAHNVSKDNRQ
T2 sequence (P27986 whole entry partner, canonical isoform): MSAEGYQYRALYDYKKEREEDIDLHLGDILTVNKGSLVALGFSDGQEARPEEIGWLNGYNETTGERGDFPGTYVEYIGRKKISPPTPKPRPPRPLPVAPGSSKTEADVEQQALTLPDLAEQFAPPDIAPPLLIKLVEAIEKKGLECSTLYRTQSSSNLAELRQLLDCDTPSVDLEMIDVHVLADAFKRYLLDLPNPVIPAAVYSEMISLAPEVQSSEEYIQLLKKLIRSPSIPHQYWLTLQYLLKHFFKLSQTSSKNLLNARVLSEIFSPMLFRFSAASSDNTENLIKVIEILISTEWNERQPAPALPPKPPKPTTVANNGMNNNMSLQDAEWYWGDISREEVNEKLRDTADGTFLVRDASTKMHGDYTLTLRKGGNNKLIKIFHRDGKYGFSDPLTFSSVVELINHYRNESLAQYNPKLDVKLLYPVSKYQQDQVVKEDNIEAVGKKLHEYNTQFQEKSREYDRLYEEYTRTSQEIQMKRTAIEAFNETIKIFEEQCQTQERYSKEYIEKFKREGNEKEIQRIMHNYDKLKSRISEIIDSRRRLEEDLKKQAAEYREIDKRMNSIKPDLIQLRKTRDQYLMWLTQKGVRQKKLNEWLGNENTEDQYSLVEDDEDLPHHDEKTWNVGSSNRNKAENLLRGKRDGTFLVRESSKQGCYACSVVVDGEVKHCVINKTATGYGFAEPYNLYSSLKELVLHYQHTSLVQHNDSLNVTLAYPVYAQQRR
Description: HTRF PI3K Biochemical Assay to Measure Intrinsic Potency of Compound Inhibitors
This assay was developed and further optimized from a kit produced by Upstate (Millipore catalog #33-047) and has been configured for HTS and SAR screening. Briefly, this procedure exploits the exquisite specificity and high affinity binding of enzyme reaction substrate phosphatidyl(3,4,5)triphosphate (PIP3) to the GRP1 pleckstrin homology (PH) domain to generate the signal. In the absence of PIP3, an HTRF (Homogeneous Time-Resolved Fluorescence energy transfer) complex is formed consisting of europium (Eu)-labeled anti-GST, GSTtagged GRP1-PH domain, biotin-PIP3 and streptavidin conjugated APC. The native PIP3 produced by PI3-Kinase activity disrupts in a competitive manner the biotin-PIP3 from the PH domain, resulting in the loss of energy transfer (HTRF complex) and a decrease in the signal. The format of this assay is the same for all 4 isoforms of PI3K; the differences lie in the concentration of enzyme used to achieve robust assay window. The alpha, beta, and delta assays are run at 0.5, 1, and 0.3 nM enzymes and the gamma assay is run at 5 nM enzyme. The ATP concentration is 100 uM in the alpha, beta, and delta assays and 50 uM ATP in the gamma assay. All reactions are run at 5 uM PIP2.
as §1, §2, §3, §4

T1 sequence (P42336 whole entry, canonical isoform): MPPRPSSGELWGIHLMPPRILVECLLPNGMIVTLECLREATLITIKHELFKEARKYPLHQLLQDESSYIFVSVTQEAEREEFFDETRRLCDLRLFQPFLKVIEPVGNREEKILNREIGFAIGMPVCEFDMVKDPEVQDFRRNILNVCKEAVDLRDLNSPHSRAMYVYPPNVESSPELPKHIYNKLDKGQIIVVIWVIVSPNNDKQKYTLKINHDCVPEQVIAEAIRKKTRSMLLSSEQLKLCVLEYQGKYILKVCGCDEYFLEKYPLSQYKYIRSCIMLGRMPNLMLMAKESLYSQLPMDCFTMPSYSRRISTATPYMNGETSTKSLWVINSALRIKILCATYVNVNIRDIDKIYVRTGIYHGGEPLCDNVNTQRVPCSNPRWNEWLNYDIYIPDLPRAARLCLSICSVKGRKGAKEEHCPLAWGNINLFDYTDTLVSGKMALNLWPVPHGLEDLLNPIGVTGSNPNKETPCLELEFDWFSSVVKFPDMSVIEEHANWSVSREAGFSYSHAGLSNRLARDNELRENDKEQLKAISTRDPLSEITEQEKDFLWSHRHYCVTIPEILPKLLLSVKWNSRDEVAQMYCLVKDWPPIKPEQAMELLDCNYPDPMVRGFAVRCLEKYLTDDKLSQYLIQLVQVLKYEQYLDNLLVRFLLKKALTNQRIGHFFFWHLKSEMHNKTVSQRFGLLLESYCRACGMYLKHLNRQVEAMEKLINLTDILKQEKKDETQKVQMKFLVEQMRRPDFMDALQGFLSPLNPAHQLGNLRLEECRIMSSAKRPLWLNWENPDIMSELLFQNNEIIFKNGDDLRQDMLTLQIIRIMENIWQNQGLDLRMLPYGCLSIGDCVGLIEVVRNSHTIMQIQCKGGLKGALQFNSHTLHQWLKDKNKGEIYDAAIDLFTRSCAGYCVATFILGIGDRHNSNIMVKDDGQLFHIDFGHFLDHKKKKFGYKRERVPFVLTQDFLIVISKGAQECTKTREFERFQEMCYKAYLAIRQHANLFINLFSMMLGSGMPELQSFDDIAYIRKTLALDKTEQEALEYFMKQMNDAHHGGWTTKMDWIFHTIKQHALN
T1 sequence (P27986 whole entry partner, canonical isoform): as the sequence (P27986 whole entry partner, canonical isoform) above

Structure (SMILES)	Selectivity versus PI3Kalpha (PI3K-alpha)	IC50 (PI3K-delta) [nM]
CCn1c(-c2cnc(C)nc2)nc2c(N[C@H]3CCN(C(=O)C4(C)CC4)C3)ncnc21 [Compound 2-47, 9-ethyl-N-{(3S)-1-[(1-methylcyclopropyl)carbonyl]pyrrolidin-3-yl}-8-(2-methylpyrimidin-5-yl)-9H-purin-6-amine]	>10	17
CCn1c(-c2cnc(C)nc2)nc2c(N[C@H]3CC[C@@H](C(=O)NC)C3)ncnc21 [Compound 5-7]	>10	120
CCn1c(Oc2ccccc2)nc2c(N[C@H]3CCN(C(=O)C4CC4)C3)ncnc21 [Compound 8-5, N-[(3S)-1-(cyclopropylcarbonyl)pyrrolidin-3-yl]-9-ethyl-8-phenoxy-9H-purin-6-amine]	>10	23
CCn1c(OC(C)C)nc2c(N[C@H]3CCN(C(=O)C4CC4)C3)ncnc21 [Compound 8-7, N-[(3S)-1-(cyclopropylcarbonyl)pyrrolidin-3-yl]-9-ethyl-8-(1-methylethoxy)-9H-purin-6-amine]	>10	35
CCn1c(-c2cnc(C)nc2)nc2c(N[C@H]3CCN(c4ncccc4C)C3)ncnc21 [Compound 4-10, 9-ethyl-N-[(3S)-1-(3-methylpyridin-2-yl)pyrrolidin-3-yl]-8-(2-methylpyrimidin-5-yl)-9H-purin-6-amine]	>10	13
CCn1c(C(=O)Nc2cccnc2)nc2c(N[C@H]3CCN(C(=O)C4CC4)C3)ncnc21 [Compound 6-21, 6-{[(3S)-1-(cyclopropylcarbonyl)pyrrolidin-3-yl]amino}-9-ethyl-N-pyridin-3-yl-9H-purine-8-carboxamide]	>10	17
CCn1c(-c2cnc(C)nc2)nc2c(N[C@H]3C[C@H](C(=O)O)N(C(=O)OC(C)(C)C)C3)ncnc21 [Compound 1-18, (4S)-1-(tert-butoxycarbonyl)-4-{[9-ethyl-8-(2-methylpyrimidin-5-yl)-9H-purin-6-yl]amino}-D-proline]	>10	2
CCOC(=O)CCNC(=O)N1CC[C@H](Nc2ncnc3c2nc(-c2cnc(C)nc2)n3CC)C1 [Compound 12-17, ethyl N-{[(3S)-3-{[9-ethyl-8-(2-methylpyrimidin-5-yl)-9H-purin-6-yl]amino}pyrrolidin-1-yl]carbonyl}-beta-alaninate]	>10	13
CCn1c(COC)nc2c(N[C@H]3CCN(C(=O)C4CC4)C3)ncnc21 [Compound 7-8, N-[(3S)-1-(cyclopropylcarbonyl)pyrrolidin-3-yl]-9-ethyl-8-(methoxymethyl)-9H-purin-6-amine]	>10	190
CCn1c(-c2cnc(C)nc2)nc2c(N[C@H]3C[C@@H](C(N)=O)N(C(=O)C4CC4)C3)ncnc21 [Compound 15-10, (4S)-1-(cyclopropylcarbonyl)-4-{[9-ethyl-8-(2-methylpyrimidin-5-yl)-9H-purin-6-yl]amino}-L-prolinamide]	>10	60
CCn1ncc(-c2nc3c(N[C@@H]4CCN(C(=O)c5nc(C)oc5C)C4)ncnc3n2C)c1C [Compound 2-2, N-{(3R)-1-[(2,5-dimethyl-1,3-oxazol-4-yl)carbonyl]pyrrolidin-3-yl}-8-(1-ethyl-5-methyl-1H-pyrazol-4-yl)-9-methyl-9H-purin-6-amine]	–	52
CCn1c(-c2cnc(C)nc2)nc2c(N[C@H]3CCN(C(=O)C4CCCO4)C3)ncnc21 (single isomer, unassigned) [Compound 2-33, 9-ethyl-8-(2-methylpyrimidin-5-yl)-N-[(3S)-1-((R or S)-tetrahydrofuran-2-ylcarbonyl)pyrrolidin-3-yl]-9H-purin-6-amine]	>10	–
CCn1c(-c2ccc(C(F)(F)F)nc2)nc2c(N[C@H]3CCN(C(=O)C4CCOC4)C3)ncnc21 (single isomer, unassigned) [Compound 2-102, 9-ethyl-N-{(3S)-1-[(3S or 3R)-tetrahydrofuran-3-ylcarbonyl]pyrrolidin-3-yl}-8-[6-(trifluoromethyl)pyridin-3-yl]-9H-purin-6-amine]	>10	–

The next lines start with the values.

Selectivity versus PI3Kalpha (PI3K-alpha)	IC50 (PI3K-delta) [nM]	Structure (SMILES)
>10	3.3	CCn1c(C(=O)NCC(F)(F)F)nc2c(N[C@H]3CCN(C(=O)C4CCC4)C3)ncnc21 [Compound 6-9, 6-{[(3S)-1-(cyclobutylcarbonyl)pyrrolidin-3-yl]amino}-9-ethyl-N-(2,2,2-trifluoroethyl)-9H-purine-8-carboxamide]
>10	2.3	CCC(=O)N1CC[C@H](Nc2ncnc3c2nc(-c2cnc(OC)c(C#N)c2)n3C)C1 [Compound 3-33, 2-methoxy-5-(9-methyl-6-{[(3S)-1-propanoylpyrrolidin-3-yl]amino}-9H-purin-8-yl)pyridine-3-carbonitrile]
>10	1.6	CCC(=O)N1CC[C@H](Nc2ncnc3c2nc(-c2ccc4cn[nH]c4c2)n3C)C1 [Compound 3-6, (S)-1-(3-((8-(1H-indazol-6-yl)-9-methyl-9H-purin-6-yl)amino)pyrrolidin-1-yl)propan-1-one]
>10	1.5	CCn1ncc(-c2nc3c(N[C@H]4CCN(C(=O)c5nc(C)oc5C)C4)ncnc3n2C)c1C [Compound 2-5, N-{(3S)-1-[(2,5-dimethyl-1,3-oxazol-4-yl)carbonyl]pyrrolidin-3-yl}-8-(1-ethyl-5-methyl-1H-pyrazol-4-yl)-9-methyl-9H-purin-6-amine]
>10	2.4	CCC(=O)N1CC[C@H](Nc2ncnc3c2nc(-c2cncc(N)c2)n3C)C1 [Compound 3-13, 8-(5-aminopyridin-3-yl)-9-methyl-N-[(3S)-1-propanoylpyrrolidin-3-yl]-9H-purin-6-amine]
>10	1.2	CCn1c(-c2ccc(C(F)(F)F)nc2)nc2c(N[C@H]3CCN(C(=O)[C@H]4C[C@H](OC)C4)C3)ncnc21 [Compound 2-106, 9-ethyl-N-{(3S)-1-[(trans-3-methoxycyclobutyl)carbonyl]pyrrolidin-3-yl}-8-[6-(trifluoromethyl)pyridin-3-yl]-9H-purin-6-amine]
>10	< 1	CCn1c(-c2ccc(C(F)(F)F)nc2)nc2c(N[C@H]3CCN(C(=O)[C@H]4C[C@@H](OC)C4)C3)ncnc21 [Compound 2-105, 9-ethyl-N-{(3S)-1-[(cis-3-methoxycyclobutyl)carbonyl]pyrrolidin-3-yl}-8-[6-(trifluoromethyl)pyridin-3-yl]-9H-purin-6-amine]
>10	4.5	CCn1c(-c2cnc(C)nc2)nc2c(NC3CN(C(=O)C4CC4)CC3(C)C)ncnc21 (racemic) [Compound 2-95, (R and S)-N-[1-(cyclopropylcarbonyl)-4,4-dimethylpyrrolidin-3-yl]-9-ethyl-8-(2-methylpyrimidin-5-yl)-9H-purin-6-amine]
>10	1.6	CCn1c(-c2cnc(C)nc2)nc2c(N[C@H]3CCN(C(=O)N4CCC4C)C3)ncnc21 (mixture of isomers) [Compound 12-3, 9-ethyl-N-{(3S)-1-[((S and R)-2-methylazetidin-1-yl)carbonyl]pyrrolidin-3-yl}-8-(2-methylpyrimidin-5-yl)-9H-purin-6-amine]
>10	2.8	CCn1c(-c2cnc(C)nc2)nc2c(N[C@H]3CCN(C(=O)c4cocn4)C3)ncnc21 [Compound 2-72, 9-ethyl-8-(2-methylpyrimidin-5-yl)-N-[(3S)-1-(1,3-oxazol-4-ylcarbonyl)pyrrolidin-3-yl]-9H-purin-6-amine]
>10	1.2	CCn1c(-c2ccc(C(F)(F)F)cc2)nc2c(N[C@H]3CCN(C(=O)C4CC4)C3)ncnc21 [Compound 3-30, N-[(3S)-1-(cyclopropylcarbonyl)pyrrolidin-3-yl]-9-ethyl-8-[4-(trifluoromethyl)phenyl]-9H-purin-6-amine]
>10	< 1	CCn1c(-c2cnc(C)nc2)nc2c(N[C@H]3CCN(C(=O)[C@H]4C[C@@H](OC)C4)C3)ncnc21 [Compound 2-39, 9-ethyl-N-{(3S)-1-[(cis-3-methoxycyclobutyl)carbonyl]pyrrolidin-3-yl}-8-(2-methylpyrimidin-5-yl)-9H-purin-6-amine]
>10	3.9	CCn1c(-c2cnc(C)nc2)nc2c(NC3CN(C(=O)c4cocn4)CC3C)ncnc21 (single isomer, unassigned) [Compound 2-89, 9-ethyl-N-[-{(3S,4R or 3R,4S)-4-methyl-1-(1,3-oxazol-4-ylcarbonyl)pyrrolidin-3-yl]-8-(2-methylpyrimidin-5-yl)-9H-purin-6-amine]
>10	9	CCn1c(-c2cnc(C)nc2)nc2c(N[C@H]3CCCN(C(=O)C(C)C)C3)ncnc21 [Compound 2-44, 9-ethyl-N-[(3S)-1-(2-methylpropanoyl)piperidin-3-yl]-8-(2-methylpyrimidin-5-yl)-9H-purin-6-amine]
